Reference: US6846844B2, “Compounds and compositions for delivering active agents” (Emisphere Technologies, Inc., priority 2000, dated 2005)

Columns and labels:
[1] = Intracolonic delivery of heparin with delivery agent compound, activated partial thromboplastin time (APTT); type: in vivo, Sprague-Dawley rats; conditions: rats, intracolonic (IC); compound dose 50 mg/kg, heparin dose 25 mg/kg, volume dose 1 ml/kg; five rats; baseline about 20 sec
Method: Intracolonic (IC) dosing solutions containing a delivery agent compound and heparin sodium USP in 25% aqueous propylene glycol were prepared. Either the sodium salt of the delivery agent compound was used or the free acid was converted to the sodium salt with one equivalent of sodium hydroxide. Typically, the delivery agent compound and heparin (about 166-182 IU/mg) were mixed by vortex as dry powders. This dry mixture was dissolved in 25% v/v aqueous propylene glycol, vortexed and placed in a sonicator (about 37° C.). The pH was adjusted to about 7 (6.5 to 8.5) with aqueous NaOH (2N). The dosing solution was sonicated to produce a clear solution. The final volume was adjusted to 3.0 mL. The final delivery agent compound dose, heparin dose and volume dose amounts are listed below in Table 2.
The typical dosing and sampling protocols were as follows. […]
Citrated blood samples were collected by cardiac puncture following the administration of ketamine (88 mg/kg), typically at time=0.25, 0.5, 1.0 and 1.5 hours. Heparin activity was determined by utilizing the activated partial thromboplastin time (APTT) according to the method of Henry, J. B., Clinical Diagnosis and Management by Laboratory Methods, Philadelphia, Pa., W. B. Saunders (1979). […]

Compound | melting point | Mean Peak APTT (sec) ± SD [1]
Cc1ccc(NC(=O)C[C@@H](C)CC(=O)O)c(O)c1 [Compound 2, (3R)-5-[(2-hydroxy-4-methylphenyl)amino]-3-methyl-5-oxo-pentanoic acid] | 117 to 118 °C | –
Cc1c(Cl)cc(NC(=O)CC(C)CC(=O)O)c(O)c1Cl (stereo not drawn) [Compound 1, 3R-5-[(3,5-dichloro-2-hydroxy-4-methylphenyl)amino]-3-methyl-5-oxopentanoic acid] | 171 to 173 °C | 205.8 ± 32.4 s
